Columns and labels:
Format in all cases: in vivo
[1] = test system: crabgrass, large (large crabgrass, Digitaria sanguinalis); assay: Test A pre-/postemergence: crabgrass, large; settings: for Crabgrass, Large plant response rating: Postemergence; for Plant response rating, Crabgrass, Large: Preemergence
Method in brief: (§1)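 Injury was scored visually on a 0 (no effect) to 100 (complete control) scale versus untreated controls roughly ten days after treatment in the greenhouse. Compounds, formulated in surfactant-containing non-phytotoxic solvent, went on as soil-directed preemergence spray or postemergence to one- to two-leaf plants 2–10 cm tall.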

[2] = test system: foxtail, giant (giant foxtail, Setaria faberii); assay: Test A pre-/postemergence: foxtail, giant; settings: for Foxtail, Giant plant response rating: Postemergence; for Plant response rating, Foxtail, Giant: Preemergence
Method in brief: as §1

[3] = test system: pigweed (Amaranthus retroflexus); assay: Test A pre-/postemergence: pigweed; settings: for Pigweed plant response rating: Postemergence; for Plant response rating, Pigweed: Preemergence
Method in brief: as §1

[4] = test system: velvetleaf (Abutilon theophrasti); assay: Test A pre-/postemergence: velvetleaf; settings: for Velvetleaf plant response rating: Postemergence; for Plant response rating, Velvetleaf: Preemergence
Method in brief: as §1

wild oat (Avena fatua) = assay: Test C pre-/postemergence: wild oat
Method in brief: (§2)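 Visual injury scored 0–100 (100 = complete control) against untreated controls after 13–15 greenhouse days. Surfactant-containing solvent formulations applied either to soil after sowing (loam/sand) or over 1- to 4-leaf plants, 2–18 cm tall.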

[5] = test system: foxtail, giant (giant foxtail, Setaria faberii); assay: Test C pre-/postemergence: foxtail, giant
Method in brief: as §2

kochia (Kochia scoparia) = assay: Test C pre-/postemergence: kochia
Method in brief: as §2

[6] = test system: ragweed (common ragweed, Ambrosia elation); assay: Test C pre-/postemergence: ragweed
Method in brief: as §2

[7] = test system: chickweed (common chickweed, Stellaria media); assay: Test C postemergence: chickweed
Method in brief: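 Visual ratings of 0 (no effect) to 100 (complete control) were made against controls 13-15 days after a postemergence spray, with plants kept in a greenhouse. Plants were 2-18 cm tall (1- to 4-leaf stage) in Redi-Earth peat/vermiculite medium at treatment.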

[8] = 125 g ai/ha, 0 to 100 scale, 0 is no effect, 100 is complete control
[9] = 500 g ai/ha, visual rating on 0 to 100 scale (0 no effect, 100 complete control), approximately ten days
[10] = 125 g ai/ha, 0 to 100 scale (0 no effect, 100 complete control)
[11] = 500 g ai/ha, 0 to 100 scale, 0 is no effect, 100 is complete control
[12] = Postemergence, 31 g ai/ha, scale 0 to 100 (0 no effect, 100 complete control)
[13] = Postemergence, 62 g ai/ha, scale 0 to 100 (0 no effect, 100 complete control)
[14] = Postemergence, 125 g ai/ha, scale 0 to 100, 0 no effect, 100 complete control
[15] = Postemergence, 250 g ai/ha, scale 0 to 100
[16] = Preemergence, 31 g ai/ha, scale of 0 to 100, 0 is no effect, 100 is complete control
[17] = Preemergence, 62 g ai/ha, scale of 0 to 100, 0 is no effect, 100 is complete control
[18] = Preemergence, 125 g ai/ha, scale 0 to 100, 0 no effect, 100 complete control
[19] = Preemergence, 250 g ai/ha, scale 0 to 100, 0 no effect, 100 complete control
[20] = 31 g ai/ha, scale 0 to 100 (0 no effect, 100 complete control)
[21] = 62 g ai/ha, scale 0 to 100 (0 no effect, 100 complete control)
[22] = 125 g ai/ha, scale 0 to 100, 0 no effect, 100 complete control
[23] = 125 g ai/ha, 0 to 100 scale where 0 is no effect and 100 is complete control
[24] = 500 g ai/ha, 0 to 100 scale (0 no effect, 100 complete control)

## Cc1nn(-c2ccc(C(F)(F)F)cn2)nc1Oc1ccnc(C(F)(F)F)c1 [Compound 23]
[1]; [8]
  Crabgrass, Large plant response rating: 90
[1]; [9]
  Crabgrass, Large plant response rating: 90
[1]; [10]
  Plant response rating, Crabgrass, Large: 100
[1]; [11]
  Plant response rating, Crabgrass, Large: 100
[2]; [8]
  Foxtail, Giant plant response rating: 90
[2]; [9]
  Foxtail, Giant plant response rating: 90
[2]; [10]
  Plant response rating, Foxtail, Giant: 100
[2]; [11]
  Plant response rating, Foxtail, Giant: 100
[3]; [8]
  Pigweed plant response rating: 100
[3]; [9]
  Pigweed plant response rating: 100
[3]; [10]
  Plant response rating, Pigweed: 100
[3]; [11]
  Plant response rating, Pigweed: 100
[4]; [8]
  Velvetleaf plant response rating: 90
[4]; [9]
  Velvetleaf plant response rating: 100
[4]; [10]
  Plant response rating, Velvetleaf: 50
[4]; [11]
  Plant response rating, Velvetleaf: 100
Wild oat (Avena fatua); [12]
  Plant response rating, Oat, Wild: 5
Wild oat (Avena fatua); [13]
  Plant response rating, Oat, Wild: 10
Wild oat (Avena fatua); [14]
  Plant response rating, Oat, Wild: 35
Wild oat (Avena fatua); [15]
  Plant response rating, Oat, Wild: 35
Wild oat (Avena fatua); [16]
  Plant response rating, Oat, Wild: 45
Wild oat (Avena fatua); [17]
  Plant response rating, Oat, Wild: 80
Wild oat (Avena fatua); [18]
  Plant response rating, Oat, Wild: 80
Wild oat (Avena fatua); [19]
  Plant response rating, Oat, Wild: 100
[5]; [12]
  Plant response rating, Foxtail, Giant: 15
[5]; [13]
  Plant response rating, Foxtail, Giant: 15
[5]; [14]
  Plant response rating, Foxtail, Giant: 15
[5]; [15]
  Plant response rating, Foxtail, Giant: 25
[5]; [16]
  Plant response rating, Foxtail, Giant: 98
[5]; [17]
  Plant response rating, Foxtail, Giant: 100
[5]; [18]
  Plant response rating, Foxtail, Giant: 100
[5]; [19]
  Plant response rating, Foxtail, Giant: 100
Kochia (Kochia scoparia); [12]
  Plant response rating, Kochia: 65
Kochia (Kochia scoparia); [13]
  Plant response rating, Kochia: 75
Kochia (Kochia scoparia); [14]
  Plant response rating, Kochia: 80
Kochia (Kochia scoparia); [15]
  Plant response rating, Kochia: 85
Kochia (Kochia scoparia); [16]
  Plant response rating, Kochia: 95
Kochia (Kochia scoparia); [17]
  Plant response rating, Kochia: 95
Kochia (Kochia scoparia); [18]
  Plant response rating, Kochia: 95
Kochia (Kochia scoparia); [19]
  Plant response rating, Kochia: 100
[6]; [12]
  Plant response rating, Ragweed: 10
[6]; [13]
  Plant response rating, Ragweed: 10
[6]; [14]
  Plant response rating, Ragweed: 20
[6]; [15]
  Plant response rating, Ragweed: 20
[6]; [16]
  Plant response rating, Ragweed: 5
[6]; [17]
  Plant response rating, Ragweed: 20
[6]; [18]
  Plant response rating, Ragweed: 20
[6]; [19]
  Plant response rating, Ragweed: 60
[7]; [20]
  Plant response rating, Chickweed: 30
[7]; [21]
  Plant response rating, Chickweed: 55
[7]; [22]
  Plant response rating, Chickweed: 60
[7]; 250 g ai/ha, scale 0 to 100
  Plant response rating, Chickweed: 70

## Cc1nn(-c2ccc(C(F)(F)F)cc2)nc1Oc1ccnc(C(F)(F)F)c1 [Compound 120]
[1]; [8]
  Crabgrass, Large plant response rating: 80
[1]; [9]
  Crabgrass, Large plant response rating: 90
[1]; [23]
  Plant response rating, Crabgrass, Large: 100
[1]; [24]
  Plant response rating, Crabgrass, Large: 100
[2]; [8]
  Foxtail, Giant plant response rating: 80
[2]; [9]
  Foxtail, Giant plant response rating: 80
[2]; [23]
  Plant response rating, Foxtail, Giant: 100
[2]; [24]
  Plant response rating, Foxtail, Giant: 100
[3]; [8]
  Pigweed plant response rating: 90
[3]; [9]
  Pigweed plant response rating: 100
[3]; [23]
  Plant response rating, Pigweed: 100
[3]; [24]
  Plant response rating, Pigweed: 100
[4]; [8]
  Velvetleaf plant response rating: 50
[4]; [9]
  Velvetleaf plant response rating: 80
[4]; [23]
  Plant response rating, Velvetleaf: 40
[4]; [24]
  Plant response rating, Velvetleaf: 70
Wild oat (Avena fatua); [12]
  Plant response rating, Oat, Wild: 55
Wild oat (Avena fatua); [13]
  Plant response rating, Oat, Wild: 60
Wild oat (Avena fatua); [14]
  Plant response rating, Oat, Wild: 80
Wild oat (Avena fatua); [15]
  Plant response rating, Oat, Wild: 90
Wild oat (Avena fatua); [16]
  Plant response rating, Oat, Wild: 85
Wild oat (Avena fatua); [17]
  Plant response rating, Oat, Wild: 90
Wild oat (Avena fatua); [18]
  Plant response rating, Oat, Wild: 95
Wild oat (Avena fatua); [19]
  Plant response rating, Oat, Wild: 95
[5]; [12]
  Plant response rating, Foxtail, Giant: 5
[5]; [13]
  Plant response rating, Foxtail, Giant: 45
[5]; [14]
  Plant response rating, Foxtail, Giant: 50
[5]; [15]
  Plant response rating, Foxtail, Giant: 55
[5]; [16]
  Plant response rating, Foxtail, Giant: 98
[5]; [17]
  Plant response rating, Foxtail, Giant: 98
[5]; [18]
  Plant response rating, Foxtail, Giant: 98
[5]; [19]
  Plant response rating, Foxtail, Giant: 100
Kochia (Kochia scoparia); [12]
  Plant response rating, Kochia: 65
Kochia (Kochia scoparia); [13]
  Plant response rating, Kochia: 95
Kochia (Kochia scoparia); [14]
  Plant response rating, Kochia: 98
Kochia (Kochia scoparia); [15]
  Plant response rating, Kochia: 98
Kochia (Kochia scoparia); [16]
  Plant response rating, Kochia: 10
Kochia (Kochia scoparia); [17]
  Plant response rating, Kochia: 90
Kochia (Kochia scoparia); [18]
  Plant response rating, Kochia: 100
Kochia (Kochia scoparia); [19]
  Plant response rating, Kochia: 100
[6]; [12]
  Plant response rating, Ragweed: 60
[6]; [13]
  Plant response rating, Ragweed: 60
[6]; [14]
  Plant response rating, Ragweed: 80
[6]; [15]
  Plant response rating, Ragweed: 85
[6]; [16]
  Plant response rating, Ragweed: 0
[6]; [17]
  Plant response rating, Ragweed: 45
[6]; [18]
  Plant response rating, Ragweed: 45
[6]; [19]
  Plant response rating, Ragweed: 65
[7]; [20]
  Plant response rating, Chickweed: 75
[7]; [21]
  Plant response rating, Chickweed: 100
[7]; [22]
  Plant response rating, Chickweed: 100
[7]; 250 g ai/ha, scale 0 to 100
  Plant response rating, Chickweed: 100
